Laboratory results reported in the supplement of paper PMC10307832.

Assays:
Assay in all cases: relative viability (nuclei count vs DMSO), 5 days (fraction); higher = more cells survive
[1] = system: NCI-H1975
In short: (§1)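 Each reported value is a median over duplicate plates. It expresses relative viability: treated-well nuclei count divided by vehicle-well nuclei count. Lung cancer cell lines in 1536-well plates were dosed by pin tool a day after seeding, alone with one drug or with a fixed anchor-drug dose plus five library-drug doses (not always all listed) in √10 steps, and nuclei were counted after 5 days.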

[2] = system: SK-LU-1
In short: as §1

[3] = system: NCI-H520
In short: as §1

[4] = system: PC-3 [JPC-3]
In short: as §1

[5] = system: NCI-H2342
In short: as §1

[6] = system: NCI-H1792
In short: as §1

[7] = system: NCI-H1650
In short: as §1

[8] = system: NCI-H23
In short: as §1

[9] = system: EKVX
In short: as §1

[10] = system: NCI-H661
In short: as §1

[11] = system: NCI-H441
In short: as §1

[12] = system: NCI-H460
In short: as §1

[13] = system: NCI-H1437
In short: as §1

[14] = system: NCI-H1666
In short: as §1

[15] = system: NCI-H838
In short: as §1

[16] = system: NCI-H322M
In short: as §1

[17] = system: NCI-H596
In short: as §1

[18] = system: NCI-H522
In short: as §1

[19] = system: NCI-H727
In short: as §1

[20] = system: NCI-H647
In short: as §1

[21] = system: NCI-H1915
In short: as §1

[22] = system: LCLC-97TM1
In short: as §1

[23] = system: NCI-H358
In short: as §1

CN1CCN(CCOc2cc(OC3CCOCC3)c3c(Nc4c(Cl)ccc5c4OCO5)ncnc3c2)CC1 [Saracatinib] + COc1cccc2cc(-c3nc([C@H]4CC[C@H](C(=O)O)CC4)n4ncnc(N)c34)[nH]c12 [OSI-027] (partner 0.5 µM)
relative viability ([1]; first compound 0.02 µM): 0.678 | relative viability ([1]; first compound 0.2 µM): 0.585 | relative viability ([1]; first compound 0.6325 µM): 0.686 | relative viability ([1]; first compound 2 µM): 0.403 | relative viability ([2]; first compound 0.02 µM): 0.33 | relative viability ([2]; first compound 0.2 µM): 0.28 | relative viability ([2]; first compound 0.6325 µM): 0.245 | relative viability ([2]; first compound 2 µM): 0.172 | relative viability ([3]; first compound 0.02 µM): 0.191 | relative viability ([3]; first compound 0.6325 µM): 0.262 | relative viability ([3]; first compound 2 µM): 0.176 | relative viability ([4]; first compound 0.02 µM): 0.793 | relative viability ([4]; first compound 0.2 µM): 0.718 | relative viability ([4]; first compound 0.6325 µM): 0.61 | relative viability ([4]; first compound 2 µM): 0.436 | relative viability ([5]; first compound 0.02 µM): 0.689 | relative viability ([5]; first compound 0.2 µM): 0.702 | relative viability ([5]; first compound 0.6325 µM): 0.64 | relative viability ([5]; first compound 2 µM): 0.637 | relative viability ([6]; first compound 0.02 µM): 0.771 | relative viability ([6]; first compound 0.2 µM): 0.462 | relative viability ([6]; first compound 0.6325 µM): 0.809 | relative viability ([6]; first compound 2 µM): 0.558 | relative viability ([7]; first compound 0.02 µM): 0.611 | relative viability ([7]; first compound 0.2 µM): 0.396 | relative viability ([7]; first compound 0.6325 µM): 0.524 | relative viability ([7]; first compound 2 µM): 0.254 | relative viability ([8]; first compound 0.02 µM): 0.649 | relative viability ([8]; first compound 0.2 µM): 0.425 | relative viability ([8]; first compound 0.6325 µM): 0.659 | relative viability ([8]; first compound 2 µM): 0.503 | relative viability ([9]; first compound 0.02 µM): 0.679 | relative viability ([9]; first compound 0.6325 µM): 0.746 | relative viability ([9]; first compound 2 µM): 0.456 | relative viability ([10]; first compound 0.02 µM): 0.707 | relative viability ([10]; first compound 0.2 µM): 0.655 | relative viability ([10]; first compound 0.6325 µM): 0.502 | relative viability ([10]; first compound 2 µM): 0.467 | relative viability ([11]; first compound 0.02 µM): 0.614 | relative viability ([11]; first compound 0.2 µM): 0.532 | relative viability ([11]; first compound 0.6325 µM): 0.875 | relative viability ([11]; first compound 2 µM): 0.623 | relative viability ([12]; first compound 0.02 µM): 0.656 | relative viability ([12]; first compound 0.2 µM): 0.394 | relative viability ([12]; first compound 0.6325 µM): 0.623 | relative viability ([12]; first compound 2 µM): 0.376 | relative viability ([13]; first compound 0.02 µM): 0.913 | relative viability ([13]; first compound 0.2 µM): 0.671 | relative viability ([13]; first compound 0.6325 µM): 0.96 | relative viability ([13]; first compound 2 µM): 0.812 | relative viability ([14]; first compound 0.02 µM): 0.914 | relative viability ([14]; first compound 0.2 µM): 0.863 | relative viability ([14]; first compound 0.6325 µM): 1.2 | relative viability ([14]; first compound 2 µM): 1.07 | relative viability ([15]; first compound 0.02 µM): 0.348 | relative viability ([15]; first compound 0.2 µM): 0.302 | relative viability ([15]; first compound 0.6325 µM): 0.401 | relative viability ([15]; first compound 2 µM): 0.235 | relative viability ([16]; first compound 0.02 µM): 0.56 | relative viability ([16]; first compound 0.2 µM): 0.499 | relative viability ([16]; first compound 0.6325 µM): 0.449 | relative viability ([16]; first compound 2 µM): 0.275 | relative viability ([17]; first compound 0.02 µM): 0.721 | relative viability ([17]; first compound 0.2 µM): 0.429 | relative viability ([17]; first compound 0.6325 µM): 0.623 | relative viability ([17]; first compound 2 µM): 0.403 | relative viability ([18]; first compound 0.02 µM): 0.703 | relative viability ([18]; first compound 0.6325 µM): 0.692 | relative viability ([18]; first compound 2 µM): 0.683 | relative viability ([19]; first compound 0.02 µM): 0.496 | relative viability ([19]; first compound 0.2 µM): 0.463 | relative viability ([19]; first compound 0.6325 µM): 0.529 | relative viability ([19]; first compound 2 µM): 0.485 | relative viability ([20]; first compound 0.02 µM): 0.584 | relative viability ([20]; first compound 0.2 µM): 0.65 | relative viability ([20]; first compound 0.6325 µM): 0.637 | relative viability ([20]; first compound 2 µM): 0.381 | relative viability ([21]; first compound 0.02 µM): 0.623 | relative viability ([21]; first compound 0.2 µM): 0.408 | relative viability ([21]; first compound 0.6325 µM): 0.587 | relative viability ([21]; first compound 2 µM): 0.474 | relative viability ([22]; first compound 0.02 µM): 0.696 | relative viability ([22]; first compound 0.2 µM): 0.221 | relative viability ([22]; first compound 0.6325 µM): 0.7 | relative viability ([22]; first compound 2 µM): 0.505 | relative viability ([23]; first compound 0.02 µM): 0.707 | relative viability ([23]; first compound 0.2 µM): 0.391 | relative viability ([23]; first compound 0.6325 µM): 0.466 | relative viability ([23]; first compound 2 µM): 0.289
